Marks after values point to notes of the source that are not given here.
What was measured:
[1] = test system: TgCRND8 mice; test: TgCRND8 mice therapeutic dosing (5-6 months): Morris Water Maze; format: in vivo
[2] = Orally administered tritiated-inositol uptake in plasma and brain (FIG. 16); format: in vivo
Method: FIG. 16. Bioavailability of scyllo- (solid line) and myo-inositol (dashed line) in plasma and brain, determined using orally administered tritiated-inositol uptake studies. […] Brain levels also rose rapidly and were maximal at 8 h and 32 h, respectively.

[3] = Competition of scyllo-inositol uptake by myo-inositol after single oral gavage (FIG. 17); format: in vivo; conditions: co-administration of 0, 50, 200 or 400 μg of myo-inositol
Method: FIG. 17. A competition assay with myo-inositol to compete scyllo-inositol uptake, following a single oral gavage dose was examined. (A) Plasma 3^H-scyllo-inositol levels following co-administration of 0, 50, 200 or 400 μg of myo-inositol. Myo-inositol loading appears to alter the kinetics of oral scyllo-inositol uptake in a dose-dependent manner.

[4] = test system: plaque burden; test: TgCRND8 mice therapeutic dosing (5-6 months): plaque burden; format: in vivo; conditions: TgCRND8 mice dosed 5-6 months age, 28 days, 10 mg/ml in drinking water
[5] = test system: TgCRND8 mice; test: Morris Water Maze, TgCRND8 mice dosed 3 to 4 months, 3.3-30 mg/kg/day (Example 3); format: in vivo
Method: 8 mice were treated with scyllo-cyclohexanehexyl by oral gavage from 3 to 4 months. […] Animals were assessed at 4 months of age. Behavioural tests: Morris Water Maze testing was performed as previously described (Janus C, et al., 2000, Nature 408:979-982). After non-spatial pre-training, mice underwent place discrimination training for 5 days with 4-trials per day. Data were subjected to a repeated measures analysis of variance (ANOVA) with treatment (untreated, scyllo-cyclohexanehexyl) as the between subject factor. Cerebral plaque burden. Brains were removed and one hemisphere was fixed in 4% paraformaldehyde and embedded in paraffin wax in the mid sagittal plane. To generate sets of systematic uniform random sections, 5 μm serial sections were collected across the entire hemisphere. Sets of sections at 50 μm intervals were used for analyses (10-14 sections/set). Plaques were identified after antigen retrieval with formic acid, and incubation with primary anti-Aβ antibody (Dako M-0872), followed by secondary antibody (Dako StreptABCcomplex/horseradish kit). […] Aβ plaque burden was assessed with Leco IA-3001 image analysis software interfaced with Leica microscope and Hitachi KP-M1U CCD video camera. […] Vascular Aβ burden was defined as Aβ plaques originating from or surrounding blood vessels and was analysed similarly. […] The total swim path length to find the hidden platform is evaluated. […]

[6] = test system: rats infused intracerebroventricularly; test: Cognitive dysfunction in rats infused intracerebroventricularly with Aβ oligomers; format: in vivo, rat; conditions: rats infused icv with oligomers
Method: More complex systems provide support for 5 μM (0.9 μg/mL) as an effective local concentration of the scyllo-cyclohexanehexyl. […] The effectiveness of this concentration was confirmed in acute cognitive dysfunction study in rats. In the clinic, effective local concentrations of a scyllo-cyclohexanehexyl will need to be achieved following oral dosing. Three studies have examined the effective dose range of a scyllo-cyclohexanehexyl following oral dosing. […] In rats infused intracerebroventricularly (icy) with All oligomers, approximately 30 mg/kg/day (the lowest dose administered orally) provided effective alleviation of cognitive dysfunction. Therefore, considering 2 species, different animal ages and different endpoints, a dose level ranging between 3-30 mg/kg/day has consistently shown efficacy.

[7] = Brain and CSF levels of inositols after one month ad libitum dosing (GC/MS), Example 2; format: in vivo, TgCRND8 mice; conditions: mouse, in vivo
Method: Study drugs were administered either at 30 mg/kg by oral gavage, or ad libitum by dissolution in drinking water. For administration in drinking water, study drugs were dissolved at 10 mg/ml. The average amount of water taken from the bottle was 3 ml daily per animal. The average mouse weight was 33 g. […] Quantification of scyllo-cyclohexanehexyl and myo-inositol. Scyllo-cyclohexanehexyl and myo-cyclohexanehexyl levels in the brain and CSF were analyzed using gas chromatography/mass spectrometry. D-chiro-inositol was used as an internal control, as it is not present in these biological samples. Derivatization: To increase the volatility and thermal stability of these compounds and to allow for proper peak separation, these samples need to first be derivatized. The derivatization was adapted from a method presented previously (Shetty, H U, et al, 1995, Anal. Biochem. 224:279-85), where the hydroxyl groups of the cyclohexanehexyl were replaced with acetyl groups. […] Similarly, a 5-15 μl sample of CSF was mixed with 1 ml of methanol and allowed to stand at room temperature for 5 minutes. The resulting suspension was centrifuged (5 min, 5000×g) and the supernatant transferred to a glass tube (Teflon-lined cap). […] These samples were then evaporated to complete dryness (Speedvac; 60° C.). […] This mixture was flushed with dry nitrogen, securely capped and the tubes heated (80° C.; 30 min). Following derivatization, samples were cooled (RT) and the unreacted acetylating reagent evaporated using a steady stream of nitrogen gas. The derivatized products were re-dissolved (4 ml; hexane-ethyl acetate (80:20, v/v)) and washed with 1 ml of 5% sodium hydrogencarbonate solution. […] The residue was reconstituted in 100 μl; ethyl acetate. 1 μL of this was injected into the GC/MS system. A similar procedure was followed using stock concentrations of scyllo- and myo-cyclohexanehexols, which were then used to generate concentration curves (in this case the internal standard was derivatized separately and then added). GC/MS was performed using a Perkin Elmer TurboMass Autosystem XL, with a quadrupole mass spectrometer and electron ionization. Gas chromatography was performed using a 30 m×0.25 mm×0.25 μm ZB 5 (5% diphenyl/95% dimethylpolysiloxane) column, using the carrier gas Helium (1 ml/min). Samples were injected with the split set to 50 at 1 min and 0 at 5 min, the injector temperature was set at 300° C. and an initial oven temperature of 80° C. After a hold of 1 min, the temperature was ramped at 45° C./min to 187° C. and held there for 15 min. […] Sample peaks were analyzed using selected-ion monitoring, using m/z 168 for determining cyclohexanehexyl levels in the brain and CSF and m/z 373 for determining cyclohexanehexyl levels in plasma, as monitoring the larger ion reduced noise. […]

Compound	swim path lengths vs non-transgenic littermates ([1]; TgCRND8 mice treated 28 days from 5 months, p=0.11)	behavioural performance (swim path length in the Morris Water Maze) vs untreated controls ([1]; TgCRND8 mice, 28 days from 5 months, drinking water 10 mg/ml (approx. 900 mg/kg over 24 hours), p=0.01)	time of maximal brain levels [2]	time of peak plasma levels post administration [2]	brain levels of scyllo-inositol at 4 h following myo-inositol administration [3]	Mean Plaque Size [4]	Total Plaque Area [4]	maximally efficacious dose level ([5]; Morris Water Maze, TgCRND8 mice aged 4 months, oral twice daily)	swim path length (Morris Water Maze) after 5 days of assessment vs placebo ([5]; TgCRND8 mice treated 3 to 4 months, all dose levels, p=0.003, 0.008, 0.002 for 3.3, 10 and 30 mg/kg/day)	dose providing effective alleviation of cognitive dysfunction (lowest dose administered orally) [6]	increase of scyllo-cyclohexanehexyl level in CSF vs untreated [7]	increase of scyllo-cyclohexanehexyl level in brain vs untreated [7]
OC1C(O)C(O)C(O)C(O)C1O (stereo not drawn) [AZD-103, scyllo-inositol]	indistinguishable from non-transgenic littermates	significantly better behavioural performance	32 h	12 h	not significantly changed	336 ± 6* μm^2	420027 ± 14986* μm^2					
scyllo-inositol [AZD-103]								3.3 mg/kg/day	significantly shorter	approximately 30 mg/kg/day	10 fold	7 fold
